Measured values published in ChEMBL document CHEMBL5723582, “Data for DCP probe T-10430” (2024).

What was measured:
Conditions in all cases: Compound concentration 1.0 uM
[1] = target: Probable G-protein coupled receptor 32 (Homo sapiens) (UniProt O75388); test: RLU of GPR32 at 1.0 µM in the […] PRESTO-Tango GPCRome screen
[2] = target: Muscarinic acetylcholine receptor M2 (Homo sapiens) (UniProt P08172); test: RLU of CHRM2 at 1.0 µM in the […] PRESTO-Tango GPCRome screen
[3] = target: Muscarinic acetylcholine receptor M4 (Homo sapiens) (UniProt P08173); test: RLU of CHRM4 at 1.0 µM in the […] PRESTO-Tango GPCRome screen
[4] = target: Metabotropic glutamate receptor 6 (Homo sapiens) (UniProt O15303); test: RLU of GRM6 at 1.0 µM in the Aequorin PRESTO-Tango GPCRome screen
[5] = target: D(1A) dopamine receptor (Homo sapiens) (UniProt P21728); test: RLU of DRD1 at 1.0 µM in the […] PRESTO-Tango GPCRome screen
[6] = target: Lysophosphatidic acid receptor 2 (Homo sapiens) (UniProt Q9HBW0); test: RLU of LPAR2 at 1.0 µM in the […] PRESTO-Tango GPCRome screen
[7] = target: C-C chemokine receptor type 6 (Homo sapiens) (UniProt P51684); test: RLU of CCR6 at 1.0 µM in the […] PRESTO-Tango GPCRome screen
[8] = target: Somatostatin receptor type 2 (Homo sapiens) (UniProt P30874); test: RLU of SSTR2 at 1.0 µM in the […] PRESTO-Tango GPCRome screen
[9] = target: Apelin receptor (Homo sapiens) (UniProt P35414); test: RLU of APJ at 1.0 µM in the […] PRESTO-Tango GPCRome screen
[10] = target: Prostacyclin receptor (Homo sapiens) (UniProt P43119); test: RLU of PTGIR at 1.0 µM in the […] PRESTO-Tango GPCRome screen
[11] = target: Melanocortin receptor 4 (Homo sapiens) (UniProt P32245); test: RLU of MC4R at 1.0 µM in the […] PRESTO-Tango GPCRome screen
[12] = target: Melatonin receptor type 1A (Homo sapiens) (UniProt P48039); test: RLU of MTNR1A at 1.0 µM in the […] PRESTO-Tango GPCRome screen
[13] = target: Cannabinoid receptor 1 (Homo sapiens) (UniProt P21554); test: RLU of CNR1 at 1.0 µM in the […] PRESTO-Tango GPCRome screen
[14] = target: Orexin receptor type 1 (Homo sapiens) (UniProt O43613); test: RLU of HCTR1 at 1.0 µM in the Aequorin PRESTO-Tango GPCRome screen
[15] = target: Vasopressin V1a receptor (Homo sapiens) (UniProt P37288); test: RLU of AVPR1A at 1.0 µM in the […] PRESTO-Tango GPCRome screen
[16] = target: CX3C chemokine receptor 1 (Homo sapiens) (UniProt P49238); test: RLU of CX3C1 at 1.0 µM in the […] PRESTO-Tango GPCRome screen
[17] = target: Alpha-1A adrenergic receptor (Homo sapiens) (UniProt P35348); test: RLU of ADRA1A at 1.0 µM in the […] PRESTO-Tango GPCRome screen
[18] = target: G-protein coupled receptor 6 (Homo sapiens) (UniProt P46095); test: RLU of GPR6 at 1.0 µM in the […] PRESTO-Tango GPCRome screen
[19] = target: Sphingosine 1-phosphate receptor 3 (Homo sapiens) (UniProt Q99500); test: RLU of S1PR3 at 1.0 µM in the […] PRESTO-Tango GPCRome screen
[20] = target: Adenosine receptor A2a (Homo sapiens) (UniProt P29274); test: RLU of ADORA2A at 1.0 µM in the […] PRESTO-Tango GPCRome screen
[21] = target: Lysophosphatidic acid receptor 1 (Homo sapiens) (UniProt Q92633); test: RLU of LPAR1 at 1.0 µM in the […] PRESTO-Tango GPCRome screen
[22] = target: Proto-oncogene Mas (Homo sapiens) (UniProt P04201); test: RLU of MAS1 at 1.0 µM in the […] PRESTO-Tango GPCRome screen
[23] = target: 12-(S)-hydroxy-5,8,10,14-eicosatetraenoic acid receptor (Homo sapiens) (UniProt O00270); test: RLU of GPR31 at 1.0 µM in the […] PRESTO-Tango GPCRome screen
[24] = target: Probable G-protein coupled receptor 162 (Homo sapiens) (UniProt Q16538); test: RLU of GPR162 at 1.0 µM in the […] PRESTO-Tango GPCRome screen
[25] = target: Adhesion G-protein coupled receptor G1 (Homo sapiens) (UniProt Q9Y653); test: RLU of GPR56 at 1.0 µM in the […] PRESTO-Tango GPCRome screen
[26] = target: Corticotropin-releasing factor receptor 2 (Homo sapiens) (UniProt Q13324); test: RLU of CRHR2 at 1.0 µM in the […] PRESTO-Tango GPCRome screen
[27] = target: Mas-related G-protein coupled receptor member X2 (Homo sapiens) (UniProt Q96LB1); test: RLU of MRGPRX2 at 1.0 µM in the […] PRESTO-Tango GPCRome screen
[28] = target: Extracellular calcium-sensing receptor (Homo sapiens) (UniProt P41180); test: RLU of CASR at 1.0 µM in the […] PRESTO-Tango GPCRome screen
[29] = target: N-formyl peptide receptor 3 (Homo sapiens) (UniProt P25089); test: RLU of FPR3 at 1.0 µM in the […] PRESTO-Tango GPCRome screen
[30] = target: Galanin receptor type 3 (Homo sapiens) (UniProt O60755); test: RLU of GAL3 at 1.0 µM in the […] PRESTO-Tango GPCRome screen
[31] = target: C-C chemokine receptor type 7 (Homo sapiens) (UniProt P32248); test: RLU of CCR7 at 1.0 µM in the […] PRESTO-Tango GPCRome screen
[32] = target: Histamine H2 receptor (Homo sapiens) (UniProt P25021); test: RLU of HRH2 at 1.0 µM in the Aequorin PRESTO-Tango GPCRome screen
[33] = target: Adhesion G protein-coupled receptor A3 (Homo sapiens) (UniProt Q8IWK6); test: RLU of GPR125 at 1.0 µM in the […] PRESTO-Tango GPCRome screen
[34] = target: 5-hydroxytryptamine receptor 1B (Homo sapiens) (UniProt P28222); test: RLU of HTR1B at 1.0 µM in the Aequorin PRESTO-Tango GPCRome screen
[35] = target: Urotensin-2 receptor (Homo sapiens) (UniProt Q9UKP6); test: RLU of UTS2R at 1.0 µM in the […] PRESTO-Tango GPCRome screen
Sequence of Urotensin-2 receptor (Homo sapiens) (Q9UKP6 whole entry): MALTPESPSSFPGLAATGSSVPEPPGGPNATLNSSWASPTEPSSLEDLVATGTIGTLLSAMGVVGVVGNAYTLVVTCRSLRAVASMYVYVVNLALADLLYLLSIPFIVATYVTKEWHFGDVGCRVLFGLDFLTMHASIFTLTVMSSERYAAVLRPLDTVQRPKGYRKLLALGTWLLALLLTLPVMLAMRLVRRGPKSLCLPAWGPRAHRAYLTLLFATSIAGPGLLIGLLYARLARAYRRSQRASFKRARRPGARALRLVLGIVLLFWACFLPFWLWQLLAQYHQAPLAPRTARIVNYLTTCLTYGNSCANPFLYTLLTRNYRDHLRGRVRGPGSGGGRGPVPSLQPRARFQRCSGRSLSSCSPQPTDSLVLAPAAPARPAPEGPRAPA

Sequence of G-protein coupled receptor 6 (Homo sapiens) (P46095 whole entry): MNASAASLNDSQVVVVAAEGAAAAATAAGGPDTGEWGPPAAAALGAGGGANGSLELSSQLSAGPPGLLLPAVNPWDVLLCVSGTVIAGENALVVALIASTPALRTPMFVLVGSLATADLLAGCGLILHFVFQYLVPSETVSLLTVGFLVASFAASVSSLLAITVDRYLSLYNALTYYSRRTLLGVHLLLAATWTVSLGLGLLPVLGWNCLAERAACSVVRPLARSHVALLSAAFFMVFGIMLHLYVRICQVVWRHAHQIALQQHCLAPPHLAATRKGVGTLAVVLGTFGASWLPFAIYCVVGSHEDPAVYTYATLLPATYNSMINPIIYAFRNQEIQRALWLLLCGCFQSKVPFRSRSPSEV
Sequence of 12-(S)-hydroxy-5,8,10,14-eicosatetraenoic acid receptor (Homo sapiens) (O00270 whole entry): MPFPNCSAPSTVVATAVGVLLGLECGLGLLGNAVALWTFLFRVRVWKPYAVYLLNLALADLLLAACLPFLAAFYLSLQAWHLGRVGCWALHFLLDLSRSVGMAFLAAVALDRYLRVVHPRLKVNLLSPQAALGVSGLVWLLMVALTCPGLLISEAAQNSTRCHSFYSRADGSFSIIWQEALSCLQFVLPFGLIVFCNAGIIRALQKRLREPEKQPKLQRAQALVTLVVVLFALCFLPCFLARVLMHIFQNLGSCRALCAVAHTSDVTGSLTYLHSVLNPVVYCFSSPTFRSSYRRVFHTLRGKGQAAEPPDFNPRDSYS
Sequence of Proto-oncogene Mas (Homo sapiens) (P04201 whole entry): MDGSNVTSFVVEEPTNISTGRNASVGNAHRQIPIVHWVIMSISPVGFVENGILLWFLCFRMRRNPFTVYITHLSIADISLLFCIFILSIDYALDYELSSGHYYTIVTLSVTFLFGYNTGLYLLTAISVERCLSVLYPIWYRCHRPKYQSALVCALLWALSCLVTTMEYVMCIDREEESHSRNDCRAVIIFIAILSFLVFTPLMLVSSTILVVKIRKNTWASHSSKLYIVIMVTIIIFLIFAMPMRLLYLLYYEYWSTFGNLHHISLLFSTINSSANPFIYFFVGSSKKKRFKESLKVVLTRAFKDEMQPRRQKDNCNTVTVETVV
Sequence of Apelin receptor (Homo sapiens) (P35414 whole entry): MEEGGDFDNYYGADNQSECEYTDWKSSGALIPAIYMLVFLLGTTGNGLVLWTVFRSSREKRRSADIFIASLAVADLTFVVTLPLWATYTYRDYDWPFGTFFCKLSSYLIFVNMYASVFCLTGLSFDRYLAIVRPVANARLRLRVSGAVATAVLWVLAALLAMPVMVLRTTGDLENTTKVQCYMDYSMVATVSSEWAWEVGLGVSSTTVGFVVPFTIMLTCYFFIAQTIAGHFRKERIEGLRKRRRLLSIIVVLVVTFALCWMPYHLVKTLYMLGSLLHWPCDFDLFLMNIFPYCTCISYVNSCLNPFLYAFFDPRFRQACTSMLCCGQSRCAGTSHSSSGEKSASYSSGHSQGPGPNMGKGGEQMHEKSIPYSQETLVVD
Sequence of Histamine H2 receptor (Homo sapiens) (P25021 whole entry): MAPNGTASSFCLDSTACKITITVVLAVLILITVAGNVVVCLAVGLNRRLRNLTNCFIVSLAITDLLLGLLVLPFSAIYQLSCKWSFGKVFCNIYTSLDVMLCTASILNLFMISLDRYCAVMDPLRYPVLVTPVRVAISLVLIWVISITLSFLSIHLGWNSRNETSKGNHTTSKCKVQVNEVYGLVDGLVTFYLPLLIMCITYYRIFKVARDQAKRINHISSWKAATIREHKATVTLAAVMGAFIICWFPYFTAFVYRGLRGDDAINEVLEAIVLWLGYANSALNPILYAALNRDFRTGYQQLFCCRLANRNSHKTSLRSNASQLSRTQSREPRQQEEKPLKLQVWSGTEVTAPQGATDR
Sequence of N-formyl peptide receptor 3 (Homo sapiens) (P25089 whole entry): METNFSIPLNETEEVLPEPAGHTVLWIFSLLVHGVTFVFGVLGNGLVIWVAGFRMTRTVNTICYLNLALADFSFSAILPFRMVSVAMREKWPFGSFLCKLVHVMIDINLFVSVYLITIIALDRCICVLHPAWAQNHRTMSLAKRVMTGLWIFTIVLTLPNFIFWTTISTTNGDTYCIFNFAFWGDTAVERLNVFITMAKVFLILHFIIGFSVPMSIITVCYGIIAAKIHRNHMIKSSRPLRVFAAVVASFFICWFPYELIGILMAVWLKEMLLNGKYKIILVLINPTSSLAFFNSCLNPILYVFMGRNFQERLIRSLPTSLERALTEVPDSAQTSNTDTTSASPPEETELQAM
Sequence of Muscarinic acetylcholine receptor M4 (Homo sapiens) (P08173 whole entry): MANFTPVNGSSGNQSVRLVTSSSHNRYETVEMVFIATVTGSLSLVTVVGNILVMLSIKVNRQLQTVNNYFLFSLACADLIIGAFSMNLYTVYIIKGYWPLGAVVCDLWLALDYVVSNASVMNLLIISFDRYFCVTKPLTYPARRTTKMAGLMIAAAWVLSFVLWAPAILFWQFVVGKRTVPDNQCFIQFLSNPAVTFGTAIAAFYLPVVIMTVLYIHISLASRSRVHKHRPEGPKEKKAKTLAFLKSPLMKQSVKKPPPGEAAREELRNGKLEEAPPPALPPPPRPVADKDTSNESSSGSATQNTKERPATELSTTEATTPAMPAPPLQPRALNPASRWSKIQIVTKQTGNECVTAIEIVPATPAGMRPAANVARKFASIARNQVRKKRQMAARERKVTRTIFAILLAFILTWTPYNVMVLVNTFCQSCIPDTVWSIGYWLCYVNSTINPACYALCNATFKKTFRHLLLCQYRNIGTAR
Sequence of CX3C chemokine receptor 1 (Homo sapiens) (P49238 whole entry): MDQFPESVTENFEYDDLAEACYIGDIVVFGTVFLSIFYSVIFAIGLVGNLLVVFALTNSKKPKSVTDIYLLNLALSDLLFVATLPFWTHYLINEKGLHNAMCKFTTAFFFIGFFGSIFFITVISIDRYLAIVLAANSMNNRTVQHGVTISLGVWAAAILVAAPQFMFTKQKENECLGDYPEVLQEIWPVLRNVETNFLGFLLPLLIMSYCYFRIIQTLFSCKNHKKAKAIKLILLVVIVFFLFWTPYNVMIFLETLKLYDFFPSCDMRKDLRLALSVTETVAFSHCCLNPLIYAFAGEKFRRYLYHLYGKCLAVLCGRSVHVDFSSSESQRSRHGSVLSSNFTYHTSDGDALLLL
Sequence of Melatonin receptor type 1A (Homo sapiens) (P48039 whole entry): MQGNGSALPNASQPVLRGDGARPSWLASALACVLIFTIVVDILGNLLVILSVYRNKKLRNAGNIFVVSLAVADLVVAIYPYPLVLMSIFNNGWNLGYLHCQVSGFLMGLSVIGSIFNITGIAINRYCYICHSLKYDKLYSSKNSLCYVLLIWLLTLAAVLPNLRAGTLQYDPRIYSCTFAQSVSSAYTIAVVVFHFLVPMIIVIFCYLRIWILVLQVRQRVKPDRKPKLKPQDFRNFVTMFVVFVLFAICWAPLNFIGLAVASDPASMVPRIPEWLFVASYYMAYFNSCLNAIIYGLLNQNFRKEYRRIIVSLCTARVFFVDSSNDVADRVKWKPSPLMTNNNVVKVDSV
Sequence of Galanin receptor type 3 (Homo sapiens) (O60755 whole entry): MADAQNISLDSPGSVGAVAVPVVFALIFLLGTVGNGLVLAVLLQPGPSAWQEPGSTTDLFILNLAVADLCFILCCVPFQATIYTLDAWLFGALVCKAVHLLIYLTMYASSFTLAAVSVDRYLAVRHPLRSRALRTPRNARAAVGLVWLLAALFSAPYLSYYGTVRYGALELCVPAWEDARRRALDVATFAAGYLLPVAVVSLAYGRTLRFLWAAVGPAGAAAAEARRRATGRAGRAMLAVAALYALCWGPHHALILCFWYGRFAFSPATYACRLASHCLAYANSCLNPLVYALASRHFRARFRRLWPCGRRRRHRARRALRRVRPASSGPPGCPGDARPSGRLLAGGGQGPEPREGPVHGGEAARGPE
Sequence of Lysophosphatidic acid receptor 1 (Homo sapiens) (Q92633 whole entry): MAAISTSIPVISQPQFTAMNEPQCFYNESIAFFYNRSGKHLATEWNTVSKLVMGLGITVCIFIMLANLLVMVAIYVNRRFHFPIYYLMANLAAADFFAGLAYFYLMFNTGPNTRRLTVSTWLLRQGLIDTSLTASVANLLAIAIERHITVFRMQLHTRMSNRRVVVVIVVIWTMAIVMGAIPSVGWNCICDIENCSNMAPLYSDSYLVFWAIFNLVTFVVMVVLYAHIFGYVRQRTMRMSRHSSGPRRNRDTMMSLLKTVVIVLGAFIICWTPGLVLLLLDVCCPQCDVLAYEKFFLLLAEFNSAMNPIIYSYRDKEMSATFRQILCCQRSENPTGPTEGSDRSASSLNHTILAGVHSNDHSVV
Sequence of 5-hydroxytryptamine receptor 1B (Homo sapiens) (P28222 whole entry): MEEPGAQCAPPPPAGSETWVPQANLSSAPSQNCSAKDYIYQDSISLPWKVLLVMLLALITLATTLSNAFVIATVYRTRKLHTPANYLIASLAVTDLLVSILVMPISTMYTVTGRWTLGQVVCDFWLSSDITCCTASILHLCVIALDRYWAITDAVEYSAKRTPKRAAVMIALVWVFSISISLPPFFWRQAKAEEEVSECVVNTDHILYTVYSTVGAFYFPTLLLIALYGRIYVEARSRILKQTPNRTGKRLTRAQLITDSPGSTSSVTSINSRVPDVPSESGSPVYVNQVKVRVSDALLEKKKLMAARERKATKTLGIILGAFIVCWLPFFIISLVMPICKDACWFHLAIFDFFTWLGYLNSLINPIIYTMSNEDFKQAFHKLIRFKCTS

CCCCC(=O)N1CC2(C1)CN(c1ccccc1-c1nnn[nH]1)C2
RLU [1]: 5660 | RLU [2]: -12800 | RLU [3]: -838 | RLU [4]: -158 | RLU [5]: 1630 | RLU [6]: -80 | RLU [7]: -2060 | RLU [8]: -163 | RLU [9]: 5300 | RLU [10]: -408 | RLU [11]: -2110 | RLU [12]: 466 | RLU [13]: -5260 | RLU [14]: -2840 | RLU [15]: 5670 | RLU [16]: -3290 | RLU [17]: 8350 | RLU [18]: 1.07e+06 | RLU [19]: -1650 | RLU [20]: 1000 | RLU [21]: 280 | RLU [22]: -1360 | RLU [23]: 1300 | RLU [24]: 6270 | RLU [25]: 14100 | RLU [26]: 410 | RLU [27]: -9420 | RLU [28]: 4400 | RLU [29]: 2840 | RLU [30]: -1500 | RLU [31]: 342 | RLU [32]: 84.8 | RLU [33]: -4100 | RLU [34]: 77.2 | RLU [35]: -160
